# Measurements from patent publication US20190358238A1, “ALLOSTERIC ANTAGONISTS OF GPRC6a AND THEIR USE IN MITIGATING PROTEINOPATHIES” (UNIVERSITY OF SOUTH FLORIDA, priority 2016, published 2019).
# “Also recorded” adds a separate entry of the source.
# How the values were obtained:
# [1] = half-life of Drug 47661 in naive mice after IV injection; type: in vivo, mouse
# Experimental: FIG. 9. Graphs show relative half-life of Drug 47661. Naïve mice were injected with 5 mg/kg of Drug 47661 IV. Serial submandibular bleeds were taken 15 min and 60 min post IV injection. […] (N=3).
# The half-life of GPRC6A antagonist Drug 47661 was examined. Naïve mice were injected with 5 mg/kg of Drug 47661 by IV. Serial submandibular bleeds were taken 15 min and 60 min post IV injection. […] (N=3). Shown in FIG. 9 is a graph showing the relative half-life of Drug 47661.
# [2] = test system: BE(2) M17 cells; assay: alpha synuclein expression in BE(2) M17 cells stably transfected with wild-type alpha synuclein; type: cell-based; details: 72 hours, relative to GAPDH
# Experimental: FIG. 10. Shown are BE(2) M17 cells stably transfected with wild-type alpha synuclein (16 kDa) treated with GPRC6a antagonist drug 47661 for 72 hours. […] Statistical analysis was performed using One-way Anova with Fisher's LSD multiple comparison test as post hoc. (n=3 independent experiments).
# BE(2) M17 cells were stably transfected with wild-type alpha synuclein (16 kDa) and treated with GPRC6a antagonist drug 47661 for 72 hours. Samples were run on a gel. […] Statistical analysis was performed using One-way Anova with Fisher's LSD multiple comparison test as post hoc.
# [3] = test system: primary neurons; assay: tau in primary neurons after 72 hours treatment; type: cell-based; details: 10-100 nM, endogenous tau, nanomolar efficacy
# Experimental: (§1) FIG. 3A, FIG. 3B, FIG. 3C, FIG. 3D. C3H/htau cells treated with siRNA to GPRC6A show decreased tau expression compared to scrambled siRNA (FIG. 3A). GPRC6a allosteric antagonist Cpd#3 (Drug 47661) (0-250 tLM) decreases monomeric and high molecular weight (HMW) tau multimers (FIG. 3B) in C3H/htau cells. FIG. 3C-FIG. 3D show decreased tau in primary neurons after (Drug 47661) decreases tau at 10-100 nM. All treatments=72 hours (n=3 independent exp.).
# Some of the compounds have 9-fold more selectivity for GPRC6a than our current compound in a FRET-based assay (H. Johansson, et al. J. Med. Chem. 2015, 58, 8938), and an excess of 50 derivatives to these current lead compounds will be analyzed. A tetracycline inducible “on” tau fusion-Dendra2 stable cell line will be used, which is a green-to-red irreversible photoswitchable fluorescent protein activated by UV-violet/blue light. We will induce tau expression with tetracycline (1 μg/mL) for 24 h, then photo convert tau dendra2-green with blue light (488 nm) for 10 minutes to tau-dendra2-red for monitoring kinetics of tau. […] We will treat cells with GPRC6a allosteric antagonists for 72 hours with continual red fluorescent output readings every 6 hours (553 nm ex and 573 nm em). […] We will use Biotek®@ Cytation™ 3 Cell Imaging Multi-Mode Reader located at Byrd Institute. […]
# [4] = test system: C3H/htau cells; assay: tau expression in C3H/htau cells treated 72 hours, samples run on a gel; type: cell-based; details: for monomeric and high molecular weight (HMW) tau multimers: 72 hours
# Experimental: as §1
# FIG. 6. C3H/htau cells treated with GPRC6A antagonist show decreased tau expression compared to vehicle (dotted line and first lane in each well). All GPRC6a allosteric antagonists Drug 47661 (red), PF020 (blue), PF037 (black) (0-100 μM) decreased monomeric and high molecular weight (HMW) tau multimers in C3H/htau cells at different concentrations. All treatments=72 hours (n=3 independent exp.).
# rTg4510 tau mice comprise of the tau P301L mutation which expresses in the forebrain and hippocampus (K. Santacruz, et al. Science 2005, 309, 476). […] Accumulation of ptau occurs largely between 3 and 9 mo of age. Additionally, high-molecular weight tau multimers/oligomers and nitrated tau also accumulate in rTg4510 tau transgenic mice compared to non-transgenic littermates (J. B. Hunt, Jr., et al. J. Neurosci. 2015, 35, 14842). […] In stably tau overexpressing HeLa cells (C3H/htau), siRNA to GPRC6a reduced receptor expression coupled with a reduction in tau […]. We will repress GPRC6a expression in the CNS with rAAV-shRNA-GPRC6a to reduce receptor signaling.
# (§2) Some of the compounds have 9-fold more selectivity for GPRC6a than our current compound in a FRET-based assay (H. Johansson, et al. J. Med. Chem. 2015, 58, 8938), and an excess of 50 derivatives to these current lead compounds will be analyzed. A tetracycline inducible “on” tau fusion-Dendra2 stable cell line will be used, which is a green-to-red irreversible photoswitchable fluorescent protein activated by UV-violet/blue light. We will induce tau expression with tetracycline (1 μg/mL) for 24 h, then photo convert tau dendra2-green with blue light (488 nm) for 10 minutes to tau-dendra2-red for monitoring kinetics of tau. […] We will treat cells with GPRC6a allosteric antagonists for 72 hours with continual red fluorescent output readings every 6 hours (553 nm ex and 573 nm em). This assay will measure tau degradation kinetics over time (time 0 point at which photo switch occurs from tau-green to tau-red) (FIG. 5). Agents that govern tau biology will alter the rate of tau degradation (tau-red). Newly synthesize tau (tau-green) will fluoresce green to be measure on a separated channel. We will also co-label cells with DAPI nuclear stain to account for cell loss and nuclear chromatin changes. We will use Biotek®@ Cytation™ 3 Cell Imaging Multi-Mode Reader located at Byrd Institute. We will use a 96 well semi-high throughput platform with GPRC6a antagonist concentrations ranging from (10 nM-100 μM). We will also perform cell toxicity assays (Cyto Tox-ONE LDH Membrane Integrity Assay, Promega). We will perform western blot analysis in C3H/htau cells from GPRC6a antagonists that reduce tau levels more than 30% at 3 μM or below and with no more than 5-10% toxicity. We will measure autophagy related makers to determine the mechanism for tau reduction.
# C3H/htau cells were treated for 72 hours with varying concentrations of GPRC6A antagonist Drug 47661, PF020, or PF037. Samples were run on a gel. […]
# [5] = test system: PS 19 tau (P301S) transgenic mice; assay: acute bolus injection into PS19 tau (P301S) transgenic mice, western blot after 72 hours; type: in vivo, mouse
# Experimental: FIG. 4. GPRC6a allosteric antagonist impacts tau levels and modifies autophagy markers in PS 19 tau transgenic mice. PSI9 (P301S) mice (bottom left of panel) show tau AT8 accumulation received an acute bolus injection of vehicle on one hemisphere and the antagonist (Drug 47661, 78 ng) on the opposite hemisphere for 72 hours.
# as §2
# [6] = 78 ng bolus injection, western blot
Compound,clearance rate ([1]; 5 mg/kg IV (FIG. 9 legend)) [Lh/kg],"half-life ([1]; mouse, blood, 5 mg/kg IV) [min]","clearance ([1]; mouse, blood, 5 mg/kg IV, read-out: clearance rate (converted)) [mL/min/kg]","Vd ([1]; mouse, blood, 5 mg/kg IV, read-out: volume of distribution) [L/kg]",monomeric (16 kDa) and oligomeric (>75 kDa) alpha synuclein expression [2],tau in primary neurons [3],"monomeric and high molecular weight (HMW) tau multimers ([4]; 0-100 μM, vs vehicle, FIG. 6)","monomeric and high molecular weight (HMW) tau multimers ([4]; 0-250 tLM, FIG. 3B)","clearance among monomeric, insoluble, and oligomeric tau ([4]; micromolar efficacy)","beclin 1 [5, 6]","mTOR [5, 6]","p62 [5, 6]","tau expression (total tau) ([5]; 78 ng one-time bolus injection, entorhinal cortex, vs vehicle hemisphere)"
"CN(CC(=O)c1c(-c2ccccc2)[nH]c2ccccc12)CC(=O)N1CCOCC1 [Drug 47661, 2-(methyl(2-morpholino-2-oxoethyl)amino)-1-(2-phenyl-1H-indol-3-yl)ethan-1-one]",4.5,9.6,75,1.07,decreased,reduced; also recorded: decreased tau,decreased,decreases,significant clearance,increased,decreased,decreased,modestly reduced
"O=C(CN1CCCC(C(=O)N2CCOCC2)C1)c1c(-c2ccccc2)[nH]c2ccccc12 (stereo not drawn) [PF020, 2-(3-(morpholine-4-carbonyl)piperidin-1-yl)-1-(2-phenyl-1H-indol-3-yl)ethan-1-one]",–,–,–,–,–,–,decreased,–,–,–,–,–,–
CN(CCN1CCOCC1)CC(=O)c1c(-c2ccccc2)[nH]c2ccccc12 [PF037],–,–,–,–,–,–,decreased,–,–,–,–,–,–
